Assay results taken from patent US9682050B2, “Methods of treating lactose intolerance” (Nogra Pharma Limited, priority 2012, dated 2017).

Columns and labels:
[1] = tested on: human lactase gene; assay: Lactase mRNA expression (qPCR) in Caco-2 cells stimulated with PPAR agonists; type: cell-based; conditions: for LCT gene expression in Caco2 cells: summary statement
Experimental: Caco-2 colonic adenocarcinoma cell lines were used. Caco-2 cells grew in Dulbecco's modified Eagle's medium (DMEM, Invitrogen, Cergy-Pontoise, France) supplemented with 20% foetal calf serum (FCS, Dutscher, Brumath, France), 1% penicillin-streptomycin (5 ml/l) (Invitrogen) and 1% non-essential amino acids (5 ml/l) (Invitrogen). All cell lines were cultured as confluent monolayers at 37° C. in a controlled, 5% CO2 atmosphere. Each week, the confluent monolayer were trypsinized (Invitrogen) and then replated after a 1:10 dilution. For the stimulation experiments, cells were placed in 6-well plates at a density of 1×10^6 cells per well. Serum deprivation was used 16 hours prior to stimulation in order to synchronize the cells.
The cells were treated with Compound 34 (1 mM and 30 mM), 5-ASA (30 mM), or pioglitazone (1 μM). When necessary, the vehicle DMSO (Sigma) is used as control (Ctrl). After 24 hrs of stimulation, the wells were rinsed three times with sterile PBS at 4° C. The cells were then lysed with lysis buffer (RA1, Macherey-Nagel) containing 1% β-mercaptoethanol. The plates were frozen at −80° C. for subsequent RNA extraction. A time course experiment consisting of stimulation of Caco-2 cells by compound 34, 1 mM during 6 hrs and 12 hrs was also done in order to compare gene expression according treatment duration.
Total RNA were extracted with a Nucleospin RNA kit (Macherey-Nagel, Hoerdt, France). After RNAse inactivation, the total RNA was cleaned of trace genomic DNA via a DNAse treatment and eluted in RNAse-free, DEPC-free water. The purity of the RNA will be evaluated by UV spectroscopy on a Nanodrop system from 220 to 350 nm. Before microarray experiment, RNAs were also profiled on an Agilent 2100 bioanalyzer. One μg of total RNA were used in the microarray analysis (minimum concentration: 50 ng/μl).
(§1) Transcripts of genes were estimated by quantitative PCR (qPCR) in order to confirm microarrays results. 1 μg of total RNA was reverse-transcripted into cDNA using the High Capacity cDNA Achive kit (Applied biosystems). qPCR was performed using an ABI PRISM 7000 sequence detection system (Applied Biosystem). Primer pairs for each transcript were chosen with qPrimer depot software. Quantification of qPCR signals was performed using ΔCt relative quantification method using GAPDH as a reference gene. The values were represented in terms of relative quantity of mRNA level variation or fold increase compared to control conditions.
Each experiment has been done at least twice. The lactase gene expression was first confirmed to be stimulated by compound 34 at two different concentrations (1 mM, fold increase 4.78, p=0.0002; 30 mM, fold increase 7.9, p=0.0006) (FIG. 4A).

[2] = tested on: PPAR semi deficient epithelial cells; assay: LCT gene expression in PPAR knock down (ShPPAR) Caco-2 cells; type: cell-based, human
Experimental: as §1
PPARγ knock down IECs were obtained using the pSUPER.retro system (OligoEngine). Forward and reverse target sequences corresponding to nucleotides 105-123 of the human PPARg mRNA (5-′-GCCCTTCACTACTGTTGAC-3′ (SEQ ID NO: 1)) were cloned into the BglII/XhoI restriction sites of the pSUPERretro vector (pRS) giving the ShPPAR construct. A negative control pRS plasmid containing the sequence 5′-ACGCTGAGTACTTCGAAAT-3′ (SEQ ID NO: 2) targeted against the luciferase gene was also generated (ShLuc construct). Both constructions were transfected in Caco-2 cells using Nucleofector technology from Amaxa Biosystems, according to the manufacturer's protocol. […] The silencing of PPARg expression was checked by quantitative RT-PCR and western-blot analysis. […]

| Structure (SMILES) | lactase gene expression, fold increase ([1]; 30 mM, 24 hrs, Caco-2 cells) | LCT gene expression in Caco2 cells [1] | LCT gene expression in PPAR semi deficient epithelial cells [2] | lactase mRNA expression, fold increase ([1]; 1 μM, 24 hrs, Caco-2 cells) |
| --- | --- | --- | --- | --- |
| Nc1ccc(O)c(C(=O)O)c1 [5ASA, 5-amino salicyclic acid] | 12.69 fold | enhance LCT gene expression | kept their upregulatory effects | – |
| CCc1ccc(CCOc2ccc(CC3SC(=O)NC3=O)cc2)nc1 (centres unmarked) [pioglitazone] | – | enhance LCT gene expression | – | 11.76 fold |
